Laboratory results reported in DBAASP.
Converted amounts (≈) assume the structure as drawn.

What was measured:
Test in all cases: ≥ marks a high value that may be exact or a test limit, other limits are often not marked, values filed in µg/mL are converted to µM
[1] = tested on: Escherichia coli JM109
[2] = tested on: Pseudomonas aeruginosa
[3] = tested on: Staphylococcus aureus ATCC 6538P
[4] = tested on: Staphylococcus aureus
[5] = tested on: Acholeplasma laidlawii A-EF22
[6] = tested on: Staphylococcus aureus B38302
[7] = tested on: Bacillus anthracis Sterne 34F2
[8] = tested on: Escherichia coli U16318
[9] = tested on: Bacillus subtilis var. niger ATCC 9372
[10] = tested on: Escherichia coli K91BK
[11] = tested on: Pseudomonas aeruginosa PAK
[12] = tested on: Streptococcus mitis ATCC 903
[13] = tested on: Streptococcus mutans UA159
[14] = tested on: Streptococcus sanguinis NY101
[15] = tested on: Streptococcus gordonii Challis DL1
[16] = tested on: Staphylococcus aureus FDA 209P
[17] = tested on: Escherichia coli ATCC 25922
[18] = tested on: Vibrio parahaemolyticus Vp+1
[19] = tested on: Aeromonas salmonicida NCIMB 1102
[20] = tested on: Bacillus subtilis IAM 1026
[21] = tested on: Escherichia coli JCM 1649
[22] = tested on: Staphylococcus aureus IAM 1011
[23] = tested on: Shewanella putrefaciens IAM 1509
[24] = tested on: Vibrio anguillarum NCIMB 829
[25] = tested on: Photobacterium damselae subsp. piscicida Sp 9587
[26] = tested on: Salmonella typhimurium

With `CC[C@H](C)[C@H](NC(=O)[C@H](C)NC(=O)[C@H](CC(C)C)NC(=O)[C@H](CC(C)C)NC(=O)[C@H](CC(C)C)NC(=O)[C@H](C)N)C(=O)N[C@@H](CCCN=C(N)N)C(=O)N[C@@H](CCCN=C(N)N)C(=O)N[C@@H](CCCN=C(N)N)C(N)=O` [ALLLAIRRR] as the compound, how does the MIC [1] read?
The MIC was 1.85 µM (≈ 2 µg/mL).

And the MIC [2]?
The MIC was 2.77 µM (≈ 3 µg/mL).

What about the MIC [3] of the same compound?
The MIC was 1.85 µM (≈ 2 µg/mL).

What about the MIC [4] of the same compound?
The MIC was 29.6 µM (≈ 32 µg/mL).

Which MIC [5] does the source give for `CC(C)C[C@H](NC(=O)[C@H](CC(C)C)NC(=O)[C@H](CCCCN)NC(=O)[C@H](CC(C)C)NC(=O)[C@H](CC(C)C)NC(=O)[C@H](CC(C)C)NC(=O)[C@@H](N)CCCCN)C(=O)N[C@@H](CCCCN)C(=O)O` [KLLLKLLK] here?
Its MIC is ≥ 100 µM.

With `CC(=O)N[C@@H](C)C(=O)N[C@@H](CC(C)C)C(=O)N[C@@H](Cc1c[nH]c2ccccc12)C(=O)N[C@@H](CCCCN)C(=O)N[C@H](C(=O)N[C@@H](CC(C)C)C(=O)N[C@@H](CC(C)C)C(=O)N[C@@H](CCCCN)C(=O)N[C@@H](CCCCN)C(=O)N[C@H](C(=O)N[C@@H](CC(C)C)C(=O)N[C@@H](CCCCN)C(=O)N[C@@H](C)C(N)=O)C(C)C)[C@@H](C)O` [ALWKTLLKKVLKA] as the compound, how does the MIC [6] read?
The MIC was 25 µM (≈ 38.8 µg/mL).

What about the MIC [7] of the same compound?
Its MIC is ≥ 70.7 µM.

What about the MIC [8] of the same compound?
Its MIC is 25 µM (≈ 38.8 µg/mL).

And the MIC [9]?
Its MIC is 4.42 µM (≈ 6.86 µg/mL).

And the MIC [10]?
Its MIC is ≥ 100 µM.

How did the MIC [11] turn out when `CC[C@H](C)[C@H](NC(=O)[C@H](Cc1ccccc1)NC(=O)CNC(=O)CNC(=O)[C@H](CO)NC(=O)[C@H](Cc1cnc[nH]1)NC(=O)[C@H](CC(C)C)NC(=O)[C@H](CC(C)C)NC(=O)[C@H](Cc1cnc[nH]1)NC(=O)[C@H](Cc1cnc[nH]1)NC(=O)[C@H](CC(C)C)NC(=O)[C@H](CCCCN)NC(=O)[C@H](CCCCN)NC(=O)[C@H](CC(C)C)NC(=O)[C@H](CC(C)C)NC(=O)[C@H](CCCN=C(N)N)NC(=O)[C@H](CCCN=C(N)N)NC(=O)[C@H](Cc1c[nH]c2ccccc12)NC(=O)[C@@H](N)CCCN=C(N)N)C(=O)N[C@@H](CCCCN)C(=O)N[C@@H](Cc1cnc[nH]1)C(=O)N[C@@H](Cc1ccccc1)C(=O)N[C@H](C(=O)N[C@@H](Cc1cnc[nH]1)C(=O)N[C@@H](CCCN=C(N)N)C(=O)N[C@@H](Cc1ccccc1)C(N)=O)[C@@H](C)CC` [RWRRLLKKLHHLLHSGGFIKHFIHRF] was run?
Its MIC is 9.6 µM (≈ 32 µg/mL).

And the MIC [12]?
Its MIC is 9.6 µM (≈ 32 µg/mL).

What about the MIC [13] of the same compound?
The MIC was 2.4 µM (≈ 8 µg/mL).

What about the MIC [14] of the same compound?
The MIC was 9.6 µM (≈ 32 µg/mL).

What about the MIC [15] of the same compound?
Its MIC is 4.8 µM (≈ 16 µg/mL).

What about the MIC [4] of the same compound?
The MIC was 9.6 µM (≈ 32 µg/mL).

With `CC[C@H](C)[C@H](NC(=O)CNC(=O)[C@H](CCCCN)NC(=O)[C@@H](NC(=O)CNC(=O)[C@H](CCCCN)NC(=O)[C@@H](NC(=O)[C@@H](NC(=O)[C@H](CC(C)C)NC(=O)[C@H](CC(=O)O)NC(=O)[C@H](CCCCN)NC(=O)[C@@H](NC(=O)CNC(=O)[C@H](CCCCN)NC(=O)CNC(=O)[C@H](C)NC(=O)[C@H](Cc1ccccc1)NC(=O)[C@H](CCCCN)NC(=O)[C@H](CO)NC(=O)[C@H](Cc1ccccc1)NC(=O)[C@@H](NC(=O)CN)[C@@H](C)CC)[C@@H](C)CC)[C@@H](C)CC)[C@@H](C)CC)C(C)C)C(=O)N[C@@H](C)C(=O)N[C@@H](CCCCN)C(=O)N[C@@H](CCC(=O)O)C(=O)N[C@@H](C)C(=O)NCC(=O)N[C@@H](CCSC)C(=O)N[C@@H](CC(=O)O)C(=O)N[C@H](C(=O)N[C@H](C(=O)N[C@@H](CCCN=C(N)N)C(=O)N[C@H](C(=O)NCC(=O)N[C@H](C(=O)N[C@@H](CC(=O)O)C(=O)N[C@H](C(=O)N[C@@H](C)C(=O)NCC(=O)N[C@H]1CSSC[C@@H](C(=O)O)NC(=O)[C@H](CCC(=O)O)NC(=O)CNC(=O)[C@H](CCCCN)NC(=O)[C@H]([C@@H](C)CC)NC(=O)[C@H](CCCCN)NC1=O)[C@@H](C)CC)[C@@H](C)CC)[C@@H](C)O)[C@@H](C)CC)C(C)C` [GIFSKFAGKGIKDLIIKGVKGIAKEAGMDVIRTGIDIAGCKIKGEC] as the compound, how does the MIC [16] read?
The MIC was 4.9 µM (≈ 23.3 µg/mL).

What about the MIC [17] of the same compound?
Its MIC is 3.2 µM (≈ 15.2 µg/mL).

Which MIC [11] does the source give for `CC[C@H](C)[C@H](NC(=O)[C@H](Cc1ccccc1)NC(=O)CNC(=O)CNC(=O)CNC(=O)[C@H](Cc1ccccc1)NC(=O)[C@H](Cc1c[nH]c2ccccc12)NC(=O)[C@H](CCCN=C(N)N)NC(=O)[C@H](Cc1c[nH]c2ccccc12)NC(=O)[C@H](CCCN=C(N)N)NC(=O)[C@H](Cc1c[nH]c2ccccc12)NC(=O)[C@@H](N)CCCN=C(N)N)C(=O)N[C@@H](CCCCN)C(=O)N[C@@H](Cc1cnc[nH]1)C(=O)N[C@@H](Cc1ccccc1)C(=O)N[C@H](C(=O)N[C@@H](Cc1cnc[nH]1)C(=O)N[C@@H](CCCN=C(N)N)C(=O)N[C@@H](Cc1ccccc1)C(N)=O)[C@@H](C)CC` [RWRWRWFGGGFIKHFIHRF] here?
Its MIC is 24.1 µM (≈ 62.5 µg/mL).

What about the MIC [12] of the same compound?
The MIC was 12.4 µM (≈ 32 µg/mL).

And the MIC [13]?
The MIC was 3.09 µM (≈ 8 µg/mL).

What about the MIC [14] of the same compound?
Its MIC is 12.4 µM (≈ 32 µg/mL).

What about the MIC [15] of the same compound?
The MIC was 12.4 µM (≈ 32 µg/mL).

What about the MIC [4] of the same compound?
Its MIC is 12.4 µM (≈ 32 µg/mL).

With `CC[C@H](C)[C@H](NC(=O)[C@H](C)NC(=O)[C@H](CC(C)C)NC(=O)[C@H](CC(C)C)NC(=O)[C@H](Cc1cnc[nH]1)NC(=O)[C@H](C)NC(=O)[C@H](C)NC(=O)[C@H](CC(C)C)NC(=O)[C@@H](N)CC(C)C)C(=O)NCC(=O)N[C@@H](CCCN=C(N)N)C(=O)N[C@@H](CCCN=C(N)N)C(N)=O` [LLAAHLLAIGRR] as the compound, how does the MIC [1] read?
The MIC was ≥ 36.8 µM.

What about the MIC [3] of the same compound?
The MIC was 7.67 µM (≈ 9.99 µg/mL).

What about the MIC [4] of the same compound?
Its MIC is 49.1 µM (≈ 64 µg/mL).

For `CC[C@H](C)[C@H](NC(=O)CNC(=O)CNC(=O)[C@@H](NC(=O)[C@@H](N)Cc1ccccc1)[C@@H](C)CC)C(=O)N[C@H](C(=O)N[C@@H](CO)C(=O)N[C@@H](Cc1ccccc1)C(=O)N[C@H](C(=O)N[C@@H](CCCCN)C(=O)N[C@@H](CCCCN)C(=O)N[C@@H](CC(C)C)C(=O)N[C@@H](Cc1ccccc1)C(=O)O)[C@@H](C)CC)[C@@H](C)CC` [FIGGIISFIKKLF], which MIC [18] is on record?
Its MIC is 16.9 µM (≈ 25 µg/mL).

What about the MIC [19] of the same compound?
The MIC was ≥ 33.7 µM.

What about the MIC [20] of the same compound?
The MIC was 4.21 µM (≈ 6.25 µg/mL).

What about the MIC [21] of the same compound?
The MIC was ≥ 33.7 µM.

And the MIC [22]?
Its MIC is 2.11 µM (≈ 3.13 µg/mL).

What about the MIC [23] of the same compound?
Its MIC is 4.21 µM (≈ 6.25 µg/mL).

What about the MIC [24] of the same compound?
Its MIC is 8.43 µM (≈ 12.5 µg/mL).

And the MIC [25]?
The MIC was 8.43 µM (≈ 12.5 µg/mL).

And the MIC [26]?
Its MIC is ≥ 33.7 µM.

What does the source list for `CC[C@H](C)[C@H](NC(=O)CNC(=O)[C@H](CCCCN)NC(=O)[C@@H](NC(=O)CNC(=O)[C@H](CCCCN)NC(=O)[C@@H](NC(=O)[C@@H](NC(=O)[C@H](CCSC)NC(=O)[C@H](CC(N)=O)NC(=O)[C@H](CCCCN)NC(=O)[C@@H](NC(=O)CNC(=O)[C@H](CCCCN)NC(=O)CNC(=O)[C@H](C)NC(=O)[C@H](Cc1ccccc1)NC(=O)[C@H](CCCCN)NC(=O)[C@H](CO)NC(=O)[C@H](Cc1ccccc1)NC(=O)[C@H](CC(C)C)NC(=O)CN)[C@@H](C)CC)[C@@H](C)CC)[C@@H](C)CC)[C@@H](C)CC)C(=O)NCC(=O)N[C@@H](CCCCN)C(=O)N[C@@H](CCC(=O)O)C(=O)N[C@H](C(=O)NCC(=O)N[C@@H](CCSC)C(=O)N[C@@H](CC(=O)O)C(=O)N[C@H](C(=O)N[C@H](C(=O)N[C@@H](CCCN=C(N)N)C(=O)N[C@H](C(=O)NCC(=O)N[C@H](C(=O)N[C@@H](CC(=O)O)C(=O)N[C@H](C(=O)N[C@@H](C)C(=O)NCC(=O)N[C@H]1CSSC[C@@H](C(=O)O)NC(=O)[C@H](CCC(=O)O)NC(=O)CNC(=O)[C@H](CCCCN)NC(=O)[C@H]([C@@H](C)CC)NC(=O)[C@H](CCCCN)NC1=O)C(C)C)[C@@H](C)CC)[C@@H](C)O)[C@@H](C)CC)C(C)C)C(C)C` [GLFSKFAGKGIKNMIIKGIKGIGKEVGMDVIRTGIDVAGCKIKGEC]?
MIC [16]: 3 µM (≈ 14.3 µg/mL); MIC [17]: 1.7 µM (≈ 8.13 µg/mL)
